Assay results: US10590393B2, “Retinoic acid enhanced human stem cell derived blood brain barrier model” (Wisconsin Alumni Research Foundation, priority 2012, dated 2020)
Where two headings read alike, the source gives them in different places.

Assays:
iPSC-derived BMECs = assay: Test of compounds for the ability to mimic the activity of RA (elevated TEER); type: cell-based, human; conditions: for induction of elevated TEER: ability to mimic the activity of RA
Description: Further, Applicants tested a list of compounds for the ability to mimic the activity of RA.
A typical retinoic acid-enhanced blood brain barrier is created as described below and in the figures. Retinoic acid suitable for the present invention may be obtained from commercial sources such as Sigma-Aldrich. […] Both types of RA are suitable for the present invention.

in vitro = conditions: human, permeability
Description: (§1) To determine Pe values for radiolabeled compounds, each compound was diluted to 0.4 μCi in transport buffer (distilled water with 0.12 M NaCl, 25 mM NaHCO3, 3 mM KCl, 2 mM MgSO4, 2 mM CaCl2, 0.4 mM K2HPO4, 1 mM HEPES, and 0.1% bovine serum albumin [BSA; Sigma]). 200 μL aliquots were extracted from the basolateral chamber every 15 min and replaced by fresh transport buffer. […] [^3H]-vincristine was purchased from American Radiolabeled Chemicals (St. Louis, Mo., USA), while all other radiolabeled compounds were acquired from PerkinElmer (Waltham, Mass., USA). All compound incubations were conducted at 37° C. and carried out on a rotator. Triplicate filters were used for all permeability studies.

IMR90-4-derived BMECs = assay: in vitro; conditions: for permeability: human, 1 h
Description: as §1

[1] = system: hCMEC/D3 immortalized human BMEC line; conditions: cited from earlier work
[2] = RA treatment and optimized neural cell co-culture

Row | Compound | induction of elevated TEER (iPSC-derived BMECs) | further results
1 | O=C(O)CCc1cc(I)c(O)c(I)c1 [3,5-diiodo-4-hydroxyphenylpropionic acid] | not to induce elevated TEER | 
2 | N[C@@H](Cc1cc(I)c(Oc2ccc(O)cc2)c(I)c1)C(=O)O [3,5-diiodo-L-thyronine] | not to induce elevated TEER | 
3 | CCCCCC#CCC#CCC#CCC#CCCCC(=O)O [5,8,11,14-eicosatetraynoic acid] | not to induce elevated TEER | 
4 | O=Cc1c2[nH]c3ccccc3c2cc2[nH]c3ccccc3c12 [6-formylindolo[3,2-B]carbazole] | not to induce elevated TEER | 
5 | CC1=C(/C=C/C(C)=C\C=C\C(C)=C\C(=O)O)C(C)(C)CCC1 [9-cis RA] |  | enhancement by RA isoform (iPSC-derived BMECs; two isoforms of RA tested): producing the desired enhancement
6 | C=C1CC[C@H](O)C/C1=C/C=C1\CCC[C@]2(C)[C@@H]([C@H](C)CCCC(C)(C)O)CC[C@@H]12 [25-hydroxyvitamin D3] | not to induce elevated TEER | 
7 | CC1(C)CC=C(c2ccccc2)c2cc(/C=C/c3ccc(C(=O)O)cc3)ccc21 [BMS 453] | not to induce elevated TEER | 
8 | CC1(C)C(=O)C(C)(C)c2cc(C(=O)Nc3ccc(C(=O)O)cc3)ccc21 [BMS 753] | induce elevated TEER | 
9 | Clc1ccc(-c2nc3sccn3c2/C=N/OCc2ccc(Cl)c(Cl)c2)cc1 [CITCO] | not to induce elevated TEER | 
10 | COc1cc2c(c(OC)c1OC)-c1ccc(OC)c(=O)cc1[C@@H](NC(C)=O)CC2 [Colchicine, colchicine] |  | Papp A→B at 1 h (in vitro; RA-treated cells without co-culture): 0.383 ×10⁻⁶ cm/s; Papp A→B at 1 h (in vitro; optimized co-culture conditions (pericyte/hNPC), RA-treated): 0.25 ×10⁻⁶ cm/s; Average Pe (IMR90-4-derived BMECs; [2]): 0.015 ± 0.007 10^−3 cm/min; Average Pe (IMR90-4-derived BMECs; RA treatment only): 0.023 ± 0.0096 10^−3 cm/min; permeability ([1]; hCMEC/D3, colchicine and vincristine estimated from graphical data): approximately 1.6×10^−3 cm/min
11 | COc1cc2nc(N3CCN(C(=O)c4ccco4)CC3)nc(N)c2cc1OC [Prazosin, prazosin] |  | Papp A→B at 1 h (in vitro): 1.83 ×10⁻⁶ cm/s; Average Pe (IMR90-4-derived BMECs; [2]): 0.11 ± 0.006 10^−3 cm/min; Average Pe (IMR90-4-derived BMECs; RA treatment only): 0.2 ± 0.05 10^−3 cm/min; permeability (IMR90-4-derived BMECs): 2±0.5×10^−4 cm/min
12 | CC[C@]1(O)C[C@H]2CN(CCc3c([nH]c4ccccc34)[C@@](C(=O)OC)(c3cc4c(cc3OC)N(C=O)[C@H]3[C@@](O)(C(=O)OC)[C@H](OC(C)=O)[C@]5(CC)C=CCN6CC[C@]43[C@@H]65)C2)C1 [Vincristine, vincristine] |  | Papp A→B at 1 h (in vitro): 0.433 ×10⁻⁶ cm/s; permeability (IMR90-4-derived BMECs): 3.5±0.9×10^−5 cm/min; permeability [1]: approximately 0.75×10^−3 cm/min
13 | Cc1cccc(Nc2cc(Cl)nc(SCC(=O)O)n2)c1C [WY-14643] | not to induce elevated TEER | 
14 | CCCCC[C@H](O)/C=C/[C@@H]1[C@H]2C/C(=C/CCCC(=O)O)C[C@H]2C[C@H]1O [carbacyclin] | induce elevated TEER | 
15 | C[C@H](CCC(=O)O)[C@H]1CC[C@H]2[C@@H]3[C@H](O)C[C@@H]4C[C@H](O)CC[C@]4(C)[C@H]3C[C@H](O)[C@]12C [cholic acid] | not to induce elevated TEER | 
16 | CC/C=C\C/C=C\C/C=C\C/C=C\C/C=C\C/C=C\CCC(=O)O [docosa-4Z,7Z,10Z,13Z,16Z,19Z-hexaenoic acid] | not to induce elevated TEER | 
17 | CC(=O)[C@H]1[C@H](C#N)C[C@H]2[C@@H]3CC=C4C[C@@H](O)CC[C@]4(C)[C@H]3CC[C@@]21C [pregnenolone-16α-carbonitrile] | not to induce elevated TEER | 
18 | CD 3254 | induce elevated TEER | 
